According to article PMC9103351, “Effects of the Bark Resin Extract of Garcinia nigrolineata on Chronic Stress-Induced Memory Deficit in Mice Model and the In Vitro Monoamine Oxidases and β-Amyloid Aggregation Inhibitory Activities of Its Prenylated Xanthone Constituents” (Molecules, 2022):
Where two headings read alike, the source gives them in different places.

Key:
Aβ1-42 = molecular target: T1, Aβ1-42 (Homo sapiens, UniProt P05067); assay: Thioflavin-T assay of Aβ1-42 self-aggregation inhibition; assay type: biochemical; settings: for % Inhibition of Aβ Aggregation: Aβ1-42 10 µM, 24 h at 37 °C, Th-T fluorescence; for percent of self-aggregation of Aβ-(1-42): without any compound taken as 100%
T1 construct: Aβ1-42 was dissolved in a 50 mM phosphate buffer (pH 7.4)
Method: A thioflavin-T (Th-T) assay was used to evaluate the ability of 1–6 and 8–10, isolated from GN bark resin extract, to inhibit Aβ42 aggregation. The presence of Aβ plaques in the brain appears to be related to cognitive decline and neurodegeneration.
The Thioflavin-T assay used to investigate the Aβ1-42 self-aggregation activity was performed as previously described. Aβ1-42 was dissolved in a 50 mM phosphate buffer (pH 7.4) to obtain a […] stock solution. […] In black and opaque 96-well plates, 2 µL of each compound were added at a concentration of 100 µM. Then, in each well, Aβ1-42 solution was added to give a final concentration of 10 µM and mixed thoroughly. Covered plates were left in the dark for 24 h at 37 °C without agitation. After incubation, each well was loaded with 190 µL of […] ThT in 50 mM glycine/NaOH buffer (pH 8.0), and fluorescence intensities were measured at 446 nm and 490 nm for excitation and emission, respectively. The percent inhibition of each compound was calculated and reported.

recombinant human MAO-A = molecular target: T2, recombinant human MAO-A (Homo sapiens, UniProt P21397); assay: Inhibitory activity on recombinant human MAO-A (kynuramine, fluorescence); assay type: biochemical; settings: for Si MAO-A: selective index from Ki values (Ki = IC50/(1 + [S]/Km)), Si = Ki (MAO-B)/Ki (MAO-A)
T2 construct: purchased Sigma-Aldrich
T2 sequence (P21397 1-527): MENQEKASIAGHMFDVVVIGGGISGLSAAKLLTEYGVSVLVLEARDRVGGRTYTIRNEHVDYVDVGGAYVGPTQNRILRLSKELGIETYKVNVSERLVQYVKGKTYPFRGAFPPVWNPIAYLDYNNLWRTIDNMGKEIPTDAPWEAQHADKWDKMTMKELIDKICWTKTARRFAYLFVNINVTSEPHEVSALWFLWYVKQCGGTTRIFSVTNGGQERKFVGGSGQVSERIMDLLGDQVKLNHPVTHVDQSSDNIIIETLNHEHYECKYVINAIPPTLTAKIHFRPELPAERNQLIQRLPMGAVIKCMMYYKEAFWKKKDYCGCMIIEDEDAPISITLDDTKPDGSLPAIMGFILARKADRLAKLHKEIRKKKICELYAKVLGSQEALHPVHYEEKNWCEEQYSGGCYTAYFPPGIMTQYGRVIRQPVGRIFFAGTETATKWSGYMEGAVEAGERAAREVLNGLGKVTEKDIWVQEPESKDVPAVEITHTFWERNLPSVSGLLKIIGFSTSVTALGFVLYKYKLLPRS
Method: (§1) The inhibitory activity assays of the isolated compound with recombinant human MAO-A and MAO-B (Sigma-Aldrich, St. Louis, MO, USA) were carried out with some modification as described recently by. In brief, 1–6 and 8–10 were first dissolved in DMSO to obtain a stock solution with a concentration of 25 mM. The activity was determined by serial dilution of each concentration of the compounds. For the MAO-A inhibitor assay, 4.5 µL of kynuramine (Sigma-Aldrich, St. Louis, MO, USA) were mixed with 234.75 µL of potassium phosphate buffer (100 mM, pH 7.4, made isotonic with KCl, 20.2 mM). Then, 3 µL of kynuramine were mixed with 236.25 µL of potassium phosphate buffer (pH 7.4) for the MAO-B inhibitor assay. The reaction was stopped by adding 400 µL of 2N NaOH and 1000 µL of water. The fluorescence of 4-hydroxyquinoline (Sigma-Aldrich, St. Louis, MO, USA), a by-product of this reaction, was measured with the excitation wavelength at 310 nm and the emission wavelength at 400 nm. The initial rates of MAO-catalyzed kynuramine oxidation were plotted versus the logarithm of the inhibitor concentrations and reported as IC50 values by using the Prism software package (GraphPad Software, version 5, San Diego, CA, USA) to evaluate quantitative. IC50 values were converted to Ki values by using the equation Ki = IC50/(1 + [S]/Km).

recombinant human MAO-B = molecular target: T3, recombinant human MAO-B (Homo sapiens, UniProt P27338); assay: Inhibitory activity on recombinant human MAO-B (kynuramine, fluorescence); assay type: biochemical; settings: for isoenzyme selectivity by selectivity index (MAO-B): from Si values; for IC50: recombinant human MAO-B, kynuramine substrate
T3 construct: purchased Sigma-Aldrich
T3 sequence (P27338 1-520): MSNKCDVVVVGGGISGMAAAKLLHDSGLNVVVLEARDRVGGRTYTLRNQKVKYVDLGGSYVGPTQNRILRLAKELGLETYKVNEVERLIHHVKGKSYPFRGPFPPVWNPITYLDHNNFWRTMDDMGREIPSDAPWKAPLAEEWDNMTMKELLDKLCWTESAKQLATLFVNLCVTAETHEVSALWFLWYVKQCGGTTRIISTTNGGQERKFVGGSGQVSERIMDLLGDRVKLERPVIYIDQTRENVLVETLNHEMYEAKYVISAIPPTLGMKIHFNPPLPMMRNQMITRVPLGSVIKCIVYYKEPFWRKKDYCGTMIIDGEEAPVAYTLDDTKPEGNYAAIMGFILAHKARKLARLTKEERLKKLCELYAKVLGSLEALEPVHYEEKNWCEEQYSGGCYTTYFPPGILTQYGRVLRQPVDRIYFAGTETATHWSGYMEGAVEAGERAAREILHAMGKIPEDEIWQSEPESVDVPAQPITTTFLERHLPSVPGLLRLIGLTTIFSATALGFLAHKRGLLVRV
Method: as §1

Aβ (1-42) = system: Aβ (1-42); set-up: method as in PMID 27038926; settings: Aβ (1-42) incubated with compound 6 days at 37 °C; cited from earlier work
[1] = recombinant human MAO-A, kynuramine substrate, read-out: IC50 MAO-A
[2] = selective index from Ki values (Ki = IC50/(1 + [S]/Km)), Si = Ki (MAO-B)/Ki (MAO-A)

T1 sequence (P05067 672-713 limits assumed): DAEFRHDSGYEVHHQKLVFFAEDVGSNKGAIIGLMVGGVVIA

Row | Structure (SMILES) | % Inhibition of Aβ Aggregation (Aβ1-42; compound 100 µM) | percent of self-aggregation of Aβ-(1-42) (Aβ1-42; compound 100 µM) | IC50 (recombinant human MAO-A; [1]) | Si MAO-A (recombinant human MAO-A) | isoenzyme selectivity by selectivity index (MAO-B) (recombinant human MAO-B) | IC50 (recombinant human MAO-B) | Si MAO-B (recombinant human MAO-B; [2]) | amyloid aggregation inhibition (Aβ (1-42)) | IC50 (recombinant human MAO-A) | Si MAO-B (recombinant human MAO-B) | % Inhibition of Aβ Aggregation (Aβ1-42; positive control at 5 µM) | percent of self-aggregation of Aβ-(1-42) (Aβ1-42; positive control at 5 µM)
1 | COc1cc2oc3c(OC)c(O)ccc3c(=O)c2c(O)c1CC=C(C)C [Compound 1, cowagarcinone C] | 46.79 ± 5.46% | 53.21 ± 5.46% | 100.2 ± 0.35 µM | 3.407 | selectivity index on MAO-B | 17.99 ± 0.11 µM | 0.294 | – | – | – | – | –
2 | COc1cc2c(=O)c3c(O)c(C/C=C(\C)CCC=C(C)C)c(O)cc3oc2cc1O [Compound 2, cowaxanthone] | 58.56 ± 3.28% | 41.44 ± 3.28% | 119.8 ± 0.75 µM | 0.307 | – | 238.5 ± 2.03 µM | 3.254 | – | – | – | – | –
3 | COc1c(O)cc2oc3cc(O)c(CC=C(C)C)c(O)c3c(=O)c2c1CC=C(C)C [Compound 3, α-mangostin] | Not detected | – | 79.81 ± 0.5 µM | 1.218 | selectivity index on MAO-B | 40.1 ± 0.89 µM | 0.821 | inhibiting amyloid aggregation | – | – | – | –
4 | COc1cc2oc3cc(O)c(CC=C(C)C)c(O)c3c(=O)c2c(CC=C(C)C)c1OC [Compound 4, cowaxanthone B] | Not detected | – | 40.21 ± 0.35 µM | 1.579 | selectivity index on MAO-B | 15.6 ± 0.26 µM | 0.6333 | – | – | – | – | –
5 | COc1c(O)cc2oc3cc(O)c(CC=C(C)C)c(O)c3c(=O)c2c1C/C=C(\C)CCC=C(C)C [Compound 5, cowanin] | Not detected | – | – | 0.266 | – | 16.3 ± 1.44 µM | – | – | 7.1 ± 0.03 µM | 3.762 | – | –
6 | COc1c(O)cc2oc3cc4c(c(O)c3c(=O)c2c1C/C=C(\C)CCC=C(C)C)C=CC(C)(C)O4 [Compound 6, fuscaxanthone A] | Not detected | – | 69.92 ± 0.06 µM | 558.273 | selectivity index on MAO-B | 0.07 ± 0.01 µM | 0.00179 | – | – | – | – | –
7 | COc1c(O)cc2oc3cc4occc4c(O)c3c(=O)c2c1C/C=C(\C)CCC=C(C)C [Compound 8, xanthochymusxanthone A] | Not detected. | – | 100.5 ± 0.44 µM | <0.153 | – | > 400 µM | 0.6522 | – | – | – | – | –
8 | COc1c(O)c(CC=C(C)C)c2oc3cc(O)c(CC=C(C)C)c(O)c3c(=O)c2c1CC=C(C)C [Compound 9, 7-O-methylgarcinone E] | Not detected | – | 25.4 ± 0.63 µM | 38.705 | selectivity index on MAO-B | 0.4 ± 0.01 µM | 0.0256 | – | – | – | – | –
9 | COc1c(O)c(CC=C(C)C)c2oc3cc(O)c(CC=C(C)C)c(O)c3c(=O)c2c1C/C=C(\C)CCC=C(C)C [Compound 10, cowagarcinone A] | Not detected | – | 3.58 ± 0.02 µM | <0.005 | – | > 400 µM | 183.168 | – | – | – | – | –
10 | COc1cc(/C=C/C(=O)CC(=O)/C=C/c2ccc(O)c(OC)c2)ccc1O [Curcumin, reference compound] | – | – | – | – | – | – | – | – | – | – | 51.73 ± 2.89% | 48.27 ± 2.89%
